# Measured values reported in patent US20250205339A1, “FORMULATION HAVING IMPROVED ABSORBABILITY OF LOW-SOLUBLE AND/OR LOW-MEMBRANE-PERMEABLE DRUG” (MEDRx Co., Ltd., priority 2022, published 2025).
# Like-named read-outs stand apart in the source and are kept apart here.
# Key:
# [1] = Parallel Artificial Membrane Permeation Assay (PAMPA); assay type: in vitro ADME; settings: Examples 3 and 4, FIG. 1-3; isostearic acid-DODMA, isostearic acid-DODAP, oleic acid-DODMA (5 mM each ingredient); control PBS
# Protocol: In this assay, VZ185 and BI-3663 were used as a drug with low solubility and/or low permeability, and isostearic acid-DODMA, isostearic acid-DODAP and oleic acid-DODMA were used as an ionic liquid. As the control, PBS was used.
# Specifically, the permeability of the drugs was evaluated by Parallel Artificial Membrane Permeability Assay-Skin Kit (BioAssay Systems) according to the following procedures. • (1) Preparation of Phosphate Buffer Solution (PBS)
# One tablet of Phosphate Buffered Saline Tablet (Sigma) was dissolved in 200 mL of water to prepare PBS. • (2) Preparation of Sample Solution
# Also, PBS (475 μL) was mixed with 1 mg/mL of VZ185 solution (25 μL) to prepare 50 μg/mL of a drug-control solution as the control.
# 4% Lecithin/dodecane solution (5 μL) was then added into each donor well and allowed to stand. PBS (300 μL) was added into each acceptor well and 50 μg/mL of the drug-ionic liquid composition (200 μL) was added into each donor well, and the mixture was incubated in a thermostatic bath at 37° C. […] The sample solution of BI-3663 was prepared according to the same procedure.
# [2] = tested on: Caco-2 cells
# Protocol: In order to study an ionic liquid for enhancing the intestinal absorption effect of a drug with low solubility and/or low permeability, various types of ionic liquids were prepared and the permeability of a drug with low solubility and/or low permeability in compositions comprising the prepared ionic liquid and the drug was evaluated. Specifically, the permeability of a drug was evaluated by the Caco-2 cell membrane permeation assay according to the following procedures for compositions comprising VZ185, which is PROTAC, used as a model drug with low solubility and/or low permeability and each ionic liquid.
# Sodium hydroxide (0.4 g) was dissolved in water (100 mL) to prepare 0.1N NaOH solution. MES (2-morpholinoethanesulfonic acid, 1.493 g) and D-glucose (2.453 g) were dissolved in HBSS (+) (free of phenol red) (600 mL), the solution was adjusted to pH 6.5 with 0.1N NaOH solution, and then HBSS (+) (free of phenol red) was further added and adjusted to 700 mL. The solution was sterilized by filtration through 0.22 μm membrane filter to prepare Transport Buffer (A).
# HEPES (1.192 g), D-glucose (1.752 g) and BSA (1.25 g) were then dissolved in HBSS (+) (free of phenol red) (400 mL), the solution was adjusted to pH 7.4 with 0.1N NaOH solution, and then HBSS (+) (free of phenol red) was further added and adjusted to 500 mL. The solution was sterilized by filtration through 0.22 μm membrane filter to prepare Transport Buffer (B). • (2) Preparation of Sample Solution
# VZ185 (1.5 mg) was mixed with 1% TWEEN 80 (1.5 mL) to 1 mg/ml of VZ185 solution. Each organic acid (0.05 mmol) which is an anion ingredient and each cationic lipid (0.05 mmol) which is a cation ingredient were mixed with Transport Buffer (A) (4.98 mL) to prepare an ionic liquid composition comprising 10 mM each of the ingredients.
# 1 mg/mL of VZ185 solution (25 μL) and the ionic liquid composition or control composition (475 μL) were mixed to prepare 50 μg/mL of a drug-ionic liquid composition or a drug-control composition. […]
# [3] = cited from earlier work
# [4] = tested on: Caco-2 cells; remark: listed apart in the source
# [5] = tested on: Caco-2 cells; remark: listed apart in the source
# [6] = tested on: Caco-2 cells; assay: Cell membrane integrity by permeability of Lucifer Yellow; settings: Example 1; after VZ185 permeation test with 10 mM ionic liquid or control composition (5 mM where labelled); 60 min; standard value <1%
# [7] = tested on: Caco-2 cells; assay: Cell membrane integrity by Trans-Epithelial Electrical Resistance (TEER); settings: Example 1; Caco-2 monolayer exposed to VZ185 50 μg/mL with 10 mM ionic liquid or control composition (5 mM where labelled); standard value >1000Ω
compound,measurement,setting,value
c1ccc(-c2ccc(C(c3ccccc3)n3ccnc3)cc2)cc1 (stereo not shown) [bifonazole],absorbability of the drug by the PAMPA with ionic liquids,[1],remarkably improved
same,absorbability of bifonazole by use of the ionic liquid,[2],remarkably improved
COc1cc(C(=O)NCCOCCOCCOCCC(=O)Nc2cccc3c2C(=O)N(C2CCC(=O)NC2=O)C3=O)ccc1Nc1ncc(C(F)(F)F)c(Oc2cccc3c2C(=O)CC3)n1 (stereo not shown) [BI-3663],absorbability of the drug by the PAMPA with ionic liquids,[1],remarkably improved
same,Solubility,[3],<1 µg/mL
same,absorbability of BI-3663 by use of the ionic liquids,[2],remarkably improved
COc1cc(-c2cn(C)c(=O)c3cnccc23)cc(OC)c1CN1CCN(CCCCCOc2cc(-c3scnc3C)ccc2CNC(=O)[C@@H]2C[C@@H](O)CN2C(=O)[C@@H](NC(=O)C2(F)CC2)C(C)(C)C)CC1 [VZ185],absorbability of the drug by the PAMPA with ionic liquids,[1],remarkably improved
same,Solubility,[3],85 µg/mL
same,absorbability of VZ185 by use of the ionic liquids,[2],remarkably improved
"CC(O)C(=O)O (stereo not shown) [Lactic acid, lactic acid]",TEER,"[4]; human, 10 mM",550 Ω
Oleic acid-Trometamol,TEER,[4],4750 Ω
same,Lucifer Yellow (%),[5],0.1%
"O=C([O-])CCCCCCCNC(=O)c1ccccc1O.[Na+] [SNAC, salcaprozate sodium]",Lucifer Yellow (%),[6],4.3%
same,TEER,[7],210 Ω
"CCCCCCCC/C=C\CCCCCCCC(=O)[O-].[Na+] [Sodium oleate, sodium oleate]",TEER,[7],100 Ω
Oleic acid-Arginine,TEER,[4],3560 Ω
same,Lucifer Yellow (%),[5],0.1%
